According to US11912701B2, “Protein kinase inhibitors for promoting liver regeneration or reducing or preventing hepatocyte death” (HEPAREGENIX GMBH, priority 2018, dated 2024):

What was measured:
[1] = biological target: T1, BRaf (Homo sapiens, UniProt P15056); assay: 33PanQinase enzyme assay, BRaf; assay type: biochemical; conditions: ratio IC50(BRaf)/IC50(MKK4)
T1 construct: purchased ProQinase GmbH, Freiburg, Germany (33PanQinase Assay Service)
Method in brief: (§1)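 Off-target selectivity is the ratio IC50(off-target)/IC50(MKK4), with IC50 values from least-squares fitting and single-point data as % residual activity. Reactions of enzyme/substrate mix, ATP and compound ran 60 min at 30° C before H3PO4 stop; ^33P incorporation read on a scintillation counter.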

[2] = biological target: T2, MKK4 (Homo sapiens, UniProt P45985); assay: KINOMEscan competition binding assay, MKK4; conditions: residual percent of control binding (PoC) at 100 nM
T2 construct: S84/D399; host or cells: HEK-293
T2 sequence (P45985 84-399): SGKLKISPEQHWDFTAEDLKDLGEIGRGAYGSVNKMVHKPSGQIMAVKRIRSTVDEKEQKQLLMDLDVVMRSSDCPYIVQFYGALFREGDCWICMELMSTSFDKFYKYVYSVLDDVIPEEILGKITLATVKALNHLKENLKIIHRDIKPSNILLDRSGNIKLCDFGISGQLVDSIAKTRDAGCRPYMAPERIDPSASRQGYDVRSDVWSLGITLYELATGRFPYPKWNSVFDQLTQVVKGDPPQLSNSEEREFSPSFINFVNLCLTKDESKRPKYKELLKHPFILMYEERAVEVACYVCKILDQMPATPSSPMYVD
Method in brief: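 Tested at 100 nM and reported as percent of control binding (PoC). MKK4 was produced in HEK-293 cells and DNA-tagged. Displacement from ligand-coated, blocked beads was read by qPCR of eluted kinase.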

[3] = biological target: T3, JNK1 (Homo sapiens, UniProt P45983); assay: 33PanQinase enzyme assay, JNK1; assay type: biochemical; design: purchased ProQinase GmbH, Freiburg, Germany (33PanQinase Assay Service); conditions: ratio IC50(JNK1)/IC50(MKK4)
Method in brief: as §1
Target sequence in this assay (P45983 whole entry): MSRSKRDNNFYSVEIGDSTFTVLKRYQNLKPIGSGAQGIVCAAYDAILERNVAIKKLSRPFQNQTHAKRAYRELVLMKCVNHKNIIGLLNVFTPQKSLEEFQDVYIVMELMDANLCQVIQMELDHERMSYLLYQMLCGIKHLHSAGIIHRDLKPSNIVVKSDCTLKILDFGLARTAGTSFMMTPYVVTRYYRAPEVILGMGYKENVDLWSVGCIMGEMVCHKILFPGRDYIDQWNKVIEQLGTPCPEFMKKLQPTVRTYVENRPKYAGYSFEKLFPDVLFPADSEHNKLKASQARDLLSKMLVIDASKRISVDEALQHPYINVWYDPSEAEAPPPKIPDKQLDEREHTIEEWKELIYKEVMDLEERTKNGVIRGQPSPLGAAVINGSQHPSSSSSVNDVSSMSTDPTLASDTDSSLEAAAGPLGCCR

[4] = biological target: T1, BRaf; assay: KINOMEscan competition binding assay, BRaf; conditions: ratio PoC (off-target)/PoC (MKK4)
Method in brief: (§2)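 DNA-tagged kinases expressed in HEK-293 cells compete between immobilized ligand on blocked beads and test compound at 100 nM; kinase retained on beads quantified by qPCR of the tag.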

[5] = biological target: T3, JNK1; assay: KINOMEscan competition binding assay, JNK1; design: M1/Q384; host or cells: HEK-293; conditions: ratio PoC (off-target)/PoC (MKK4)
Method in brief: as §2
Target sequence in this assay (P45983 1-384 isoform P45983-2): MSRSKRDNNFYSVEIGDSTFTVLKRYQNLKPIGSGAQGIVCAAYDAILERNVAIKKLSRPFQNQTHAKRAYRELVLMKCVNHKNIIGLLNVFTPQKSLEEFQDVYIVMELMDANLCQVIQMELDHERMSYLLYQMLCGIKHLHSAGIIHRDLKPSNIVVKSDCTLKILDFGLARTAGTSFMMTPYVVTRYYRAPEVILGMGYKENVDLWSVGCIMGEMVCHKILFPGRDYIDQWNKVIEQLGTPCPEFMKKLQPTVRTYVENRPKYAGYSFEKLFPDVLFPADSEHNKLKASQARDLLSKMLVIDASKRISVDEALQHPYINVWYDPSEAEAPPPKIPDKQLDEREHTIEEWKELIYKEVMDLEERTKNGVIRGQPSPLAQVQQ

[6] = biological target: T4, MKK7 (Homo sapiens, UniProt O14733); assay: KINOMEscan competition binding assay, MKK7; design: M1/R419; host or cells: HEK-293; conditions: ratio PoC (off-target)/PoC (MKK4)
T4 sequence (O14733 1-419): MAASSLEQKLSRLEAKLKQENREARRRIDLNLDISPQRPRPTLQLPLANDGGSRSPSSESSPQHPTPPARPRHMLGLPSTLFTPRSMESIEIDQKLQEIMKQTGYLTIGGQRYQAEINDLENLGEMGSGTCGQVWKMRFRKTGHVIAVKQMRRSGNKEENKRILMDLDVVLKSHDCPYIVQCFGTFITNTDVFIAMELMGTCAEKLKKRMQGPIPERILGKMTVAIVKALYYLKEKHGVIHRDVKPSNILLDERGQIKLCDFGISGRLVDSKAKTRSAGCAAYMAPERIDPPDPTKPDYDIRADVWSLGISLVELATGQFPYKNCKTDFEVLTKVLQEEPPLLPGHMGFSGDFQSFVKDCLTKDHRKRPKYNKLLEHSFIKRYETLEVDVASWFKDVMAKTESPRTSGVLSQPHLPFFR
Method in brief: as §2

[7] = biological target: T4, MKK7; assay: 33PanQinase enzyme assay, MKK7; assay type: biochemical; design: purchased ProQinase GmbH, Freiburg, Germany (33PanQinase Assay Service); conditions: ratio IC50(MKK7)/IC50(MKK4)
Method in brief: as §1

[8] = biological target: T5, MKK4 (Homo sapiens, UniProt P45985); assay: 33PanQinase enzyme assay, MKK4; assay type: biochemical; conditions: assay 'IC50'; read-out: Potency MKK4 (IC50)
T5 construct: purchased ProQinase GmbH, Freiburg, Germany (33PanQinase Assay Service)
T5 sequence (P45985 1-399): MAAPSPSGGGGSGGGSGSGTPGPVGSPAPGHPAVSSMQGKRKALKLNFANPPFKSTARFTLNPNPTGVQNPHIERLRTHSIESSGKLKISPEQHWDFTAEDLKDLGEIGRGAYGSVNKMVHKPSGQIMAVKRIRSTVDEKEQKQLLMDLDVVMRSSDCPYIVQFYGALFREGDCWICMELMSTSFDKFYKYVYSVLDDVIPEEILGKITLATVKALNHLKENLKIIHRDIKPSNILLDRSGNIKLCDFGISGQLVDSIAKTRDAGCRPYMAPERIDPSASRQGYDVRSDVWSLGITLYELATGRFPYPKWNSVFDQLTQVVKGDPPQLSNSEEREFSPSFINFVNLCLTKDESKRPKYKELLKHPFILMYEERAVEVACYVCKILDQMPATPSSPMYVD
Method in brief: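 Inhibition measured as 33Pi transfer to substrate after a 60-min, 30 °C reaction, acid-stopped and scintillation-counted.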

T1 sequence (P15056 whole entry, species assumed): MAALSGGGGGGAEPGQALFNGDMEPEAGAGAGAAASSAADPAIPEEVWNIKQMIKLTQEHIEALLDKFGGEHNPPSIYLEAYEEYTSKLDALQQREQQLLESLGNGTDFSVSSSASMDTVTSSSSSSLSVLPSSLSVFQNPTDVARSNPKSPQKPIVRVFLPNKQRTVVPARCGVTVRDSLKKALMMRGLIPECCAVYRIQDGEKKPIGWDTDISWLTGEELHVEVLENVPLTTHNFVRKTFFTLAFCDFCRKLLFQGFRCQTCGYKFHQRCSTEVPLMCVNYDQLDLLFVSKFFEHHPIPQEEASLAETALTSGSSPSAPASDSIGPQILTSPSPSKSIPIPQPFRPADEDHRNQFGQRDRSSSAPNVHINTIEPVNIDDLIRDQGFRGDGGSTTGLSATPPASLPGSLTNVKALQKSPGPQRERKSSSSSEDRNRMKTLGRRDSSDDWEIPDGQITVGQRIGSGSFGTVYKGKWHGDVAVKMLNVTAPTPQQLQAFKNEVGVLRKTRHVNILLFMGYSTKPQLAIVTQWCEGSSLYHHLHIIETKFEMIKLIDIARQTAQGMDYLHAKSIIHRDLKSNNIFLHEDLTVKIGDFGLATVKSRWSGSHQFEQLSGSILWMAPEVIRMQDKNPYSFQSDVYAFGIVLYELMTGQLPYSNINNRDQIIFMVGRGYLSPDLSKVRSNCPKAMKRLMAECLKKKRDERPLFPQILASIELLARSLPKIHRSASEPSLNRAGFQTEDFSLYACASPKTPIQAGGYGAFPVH

Selectivity Braf, IC50(off-target)/IC50(MKK4) [1]	MKK4 [% Ctrl @ 100 nM [2]	Selectivity JNK1, IC50(off-target)/IC50(MKK4) [3]	selectivity based on % Ctrl @100 nM vs. Braf [4]	selectivity based on % Ctrl @100 nM vs. JNK1 [5]	selectivity based on % Ctrl @100 nM vs. MKK7 [6]	Selectivity IVIKK7, IC50(off-target)/IC50(MKK4) [7]	IC50 [8]	Structure (SMILES)
+++ (IC50(off-target)/IC50(MKK4) > 100)	+++ (PoC < 1)	+++ (IC50(off-target)/IC50(MKK4) > 100)	+++ (Ratio > 100)	+++ (Ratio > 100)	+++ (Ratio > 100)	+++ (IC50(off-target)/IC50(MKK4) > 100)	< 100 nM	O=C(c1ccc(F)c(NS(=O)(=O)CCC(F)(F)F)c1F)c1c[nH]c2ncc(-c3cnc(N4CCC4)nc3)cc12 [Example 180, N-(3(5-(2-(azetidin-1-yl)pyrimidin-5-yl)-1H-pyrrolo[2,3-b]pyridine-3-carbonyl)-2,6-difluorophenyl)-3,3,3-trifluoropropane-1-sulfonamide]
+++ (IC50(off-target)/IC50(MKK4) > 100)	+++ (PoC < 1)	+++ (IC50(off-target)/IC50(MKK4) > 100)	+++ (Ratio > 100)	+++ (Ratio > 100)	+++ (Ratio > 100)	+++ (IC50(off-target)/IC50(MKK4) > 100)	< 100 nM	O=C(c1ccc(F)c(NS(=O)(=O)CCC(F)(F)F)c1F)c1c[nH]c2ncc(-c3cnc(NC4CC4)nc3)cc12 [Example 182]

The remaining lines, values behind:

Structure (SMILES)	Selectivity Braf, IC50(off-target)/IC50(MKK4) [1]	MKK4 [% Ctrl @ 100 nM [2]	Selectivity JNK1, IC50(off-target)/IC50(MKK4) [3]	selectivity based on % Ctrl @100 nM vs. Braf [4]	selectivity based on % Ctrl @100 nM vs. JNK1 [5]	selectivity based on % Ctrl @100 nM vs. MKK7 [6]	Selectivity IVIKK7, IC50(off-target)/IC50(MKK4) [7]	IC50 [8]
CCCS(=O)(=O)Nc1ccc(F)c(C(=O)c2c[nH]c3ncc(-c4ccc(S(C)(=O)=O)nc4)cc23)c1F [Example 77, N-(2,4-difluoro-3-(5-(6-(methylsulfonyl)pyridin-3-yl)-1H-pyrrolo[2,3-b]pyridine-3-carbonyl)phenyl)propane-1-sulfonamide]	◯ (3 ≥ IC50(off-target)/IC50(MKK4))	+++ (PoC < 1)	+ (10 ≥ IC50(off-target)/IC50(MKK4) > 3)	◯ (3 ≥ Ratio)	+++ (Ratio > 100)	+++ (Ratio > 100)	+++ (IC50(off-target)/IC50(MKK4) > 100)	100 to 1000 nM
CCCS(=O)(=O)Nc1c(F)ccc(C(=O)c2c[nH]c3ncc(-c4ccc(NC)nc4)cc23)c1F [Example 160, N-(2,6-difluoro-3-(5-(6-(methylamino)pyridin-3-yl)-1H-pyrrolo[2,3-b]pyridine-3-carbonyl)phenyl)propane-1-sulfonamide]	++ (100 ≥ IC50(off-target)/IC50(MKK4) > 10)	+++ (PoC < 1)	++ (100 ≥ IC50(off-target)/IC50(MKK4) > 10)	+++ (Ratio > 100)	+++ (Ratio > 100)	+++ (Ratio > 100)	+++ (IC50(off-target)/IC50(MKK4) > 100)	< 100 nM
CCCS(=O)(=O)Nc1ccc(F)c(C(=O)c2c[nH]c3ncc(-c4ccc(OC)c(OC)c4)cc23)c1F [Example 105, N-(3-(5-(3,4-dimethoxyphenyl)-1H-pyrrolo[2,3-b]pyridine-3-carbonyl)-2,4-difluorophenyl)propane-1-sulfonamide]	◯ (3 ≥ IC50(off-target)/IC50(MKK4))	++ (1 ≤ PoC < 3)	++ (100 ≥ IC50(off-target)/IC50(MKK4) > 10)	◯ (3 ≥ Ratio)	++ (100 ≥ ratio > 10)	++ (100 ≥ ratio > 10)	+++ (IC50(off-target)/IC50(MKK4) > 100)	100 to 1000 nM
CCCS(=O)(=O)Nc1ccc(F)c(C(=O)c2c[nH]c3ncc(-c4cccc(OC)c4)cc23)c1F [Example 103, N-(2,4-difluoro-3-(5-(3-methoxyphenyl)-1H-pyrrolo[2,3-b]pyridine-3-carbonyl)phenyl)propane-1-sulfonamide]	◯ (3 ≥ IC50(off-target)/IC50(MKK4))	+ (3 ≤ PoC < 30)	+ (10 ≥ IC50(off-target)/IC50(MKK4) > 3)	◯ (3 ≥ Ratio)	++ (100 ≥ ratio > 10)	++ (100 ≥ ratio > 10)	+++ (IC50(off-target)/IC50(MKK4) > 100)	100 to 1000 nM
COc1ccc(-c2cnc3[nH]cc(C(=O)c4cccc(NS(=O)(=O)Cc5ccccc5)c4F)c3c2)c(Cl)c1 [Example 125, N-(3-(5-(2-chloro-4-methoxyphenyl)-1H-pyrrolo[2,3-b]pyridine-3-carbonyl)-2-fluorophenyl)-1-phenylmethanesulfonamide]	+++ (IC50(off-target)/IC50(MKK4) > 100)	++ (1 ≤ PoC < 3)	+ (10 ≥ IC50(off-target)/IC50(MKK4) > 3)	++ (100 ≥ ratio > 10)	++ (100 ≥ ratio > 10)	++ (100 ≥ ratio > 10)	+++ (IC50(off-target)/IC50(MKK4) > 100)	100 to 1000 nM
CCCS(=O)(=O)Nc1ccc(F)c(C(=O)c2c[nH]c3ncc(-c4ccc(OC(F)(F)F)cc4)cc23)c1F [Example 111, N-(2,4-difluoro-3-(5-(4-(trifluoromethoxy)phenyl)-1H-pyrrolo[2,3-b]pyridine-3-carbonyl)phenyl)propane-1-sulfonamide]	◯ (3 ≥ IC50(off-target)/IC50(MKK4))	◯ (30 ≤ PoC)	+ (10 ≥ IC50(off-target)/IC50(MKK4) > 3)	◯ (3 ≥ Ratio)	◯ (3 ≥ Ratio)	◯ (3 ≥ Ratio)	+++ (IC50(off-target)/IC50(MKK4) > 100)	100 to 1000 nM
